Active and inactive are the calls of the source. The rule behind the calls is not given here.
Assay: LAP4-GFP modulation potency in yeast, dose response, cell-based, MLPCN hits, flow cytometry (AID 2745);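 note: yeast exposed to compound for three hours at 30 degrees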
Conditions: S. cerevisiae LAP4-GFP reporter, flow cytometry fluorescence; at 33 µM (top of the series)

Row | Structure (SMILES) | LAP4-GFP fluorescence (kMESF)
1 | [O-][n+]1cccc2c(Br)cc(Br)c(O)c21 | 12.9 kMESF (inactive)
2 | O=c1[nH]c(-c2ccc(Cl)cc2)cs1 | 3.03 kMESF (inactive)
3 | O=c1c2cc(Cl)ccc2nc(-c2ccc([N+](=O)[O-])cc2)n1O | 5.26 kMESF (inactive)
4 | O=C1N(c2ccccc2C(F)(F)F)O[C@@]1(c1ccccc1)C1CCCC1 | 2.93 kMESF (inactive)
5 | COc1cc(NC(=O)c2ccccc2[N+](=O)[O-])ccc1NC(=O)c1cc2ccccc2o1 | 3.31 kMESF (inactive)
6 | Cc1cc(C)c(S(=O)(=O)N2CCC(C(=O)NCc3ccc(Cl)cc3Cl)CC2)c(C)c1 | 4.35 kMESF (inactive)
7 | Cc1ccc(S(=O)(=O)Cc2cc(F)c([N+](=O)[O-])cc2[N+](=O)[O-])cc1 | 1.59 kMESF (inactive)
8 | O=[N+]([O-])c1cnc(Sc2ccncn2)s1 | 17.8 kMESF (inactive)
9 | O=C1/C(=C\c2ccc(O)c(O)c2)SC(=S)N1Cc1ccccc1 | -9.95 kMESF (inactive)
10 | O=C1C=CC(=O)N1c1ccc(OC(F)F)cc1 | 4.2 kMESF (inactive)
11 | COC(CNC(=O)c1ccc2c3c(onc13)-c1ccccc1C2=O)OC | 2.86 kMESF (inactive)
12 | CCOc1ccccc1/C=c1\sc2ncnn2c1=O | 19 kMESF (inactive)
13 | CS(=O)(=O)c1nc(-c2ccccc2)cc(C(F)(F)F)n1 | 16.6 kMESF (inactive)
14 | COc1cc(/C=C2\C(=O)ON=C2c2ccc(Cl)cc2)ccc1O | 9.12 kMESF (inactive)
15 | N/C(=N\OC(=O)c1ccc(Cl)cc1Cl)c1ccccc1 | 12.4 kMESF (inactive)
16 | COc1ccc(-c2cc3nc4n(c(=O)c3s2)CCC4)cc1 | 3.68 kMESF (inactive)
17 | COc1ccc2c(/C=C/c3cc[n+](C)cc3)c[nH]c2c1 | 3.71 kMESF (inactive)
18 | CCN1C(=O)/C(=C\C(=O)c2cccs2)c2cc(Br)ccc21 | 12 kMESF (inactive)

Row | Structure (SMILES) | LAP4-GFP fluorescence (kMESF)
19 | O=C1C2C3C=CC(CO)(O3)C2C(=O)N1c1ccccc1-c1ccccc1 (stereo not given) | 5.75 kMESF (inactive)
20 | O=C(C#Cc1cccc([N+](=O)[O-])c1)c1ccccc1 | 8.01 kMESF (inactive)
21 | Cc1[nH][nH]c(=O)c1C(c1ccc(-c2ccc(Cl)cc2)o1)c1c(C)[nH][nH]c1=O | 6.67 kMESF (inactive)
22 | Cc1ccccc1OCCOC(=O)c1ccc(S(=O)(=O)N2CCCC2)cc1 | 3.13 kMESF (inactive)
23 | O=C(Nc1ccc(NC(=O)c2cc3ccccc3o2)cc1)c1ccc2c(c1)OCCO2 | 3.21 kMESF (inactive)
24 | CN(c1ccccc1)c1ccc(/C=c2\s/c(=C(/C#N)C(=O)C(C)(C)C)n(Cc3ccco3)c2=O)cc1 | 10.4 kMESF (inactive)
25 | COc1cc(/C=C2\C(=O)ON=C2c2ccccc2)cc(Br)c1O | 14.7 kMESF (inactive)
26 | COc1cc(C=C2C(=O)c3ccccc3C2=O)cc(OC)c1 | 4.28 kMESF (inactive)
27 | CC(C)[C@@]1(c2ccc(Cl)cc2)ON(c2ccccc2C(F)(F)F)C1=O | 3.53 kMESF (inactive)
28 | COc1ccc2c(c1)S/C(=C\C(=O)c1ccncc1)N2C | 4.85 kMESF (inactive)
29 | O=C1Nc2ccc(Br)cc2/C1=C/C(=O)c1ccc2c(c1)OCO2 | 10.4 kMESF (inactive)
30 | COc1ccc(CCNC2=C(Cl)C(=O)N(CCc3ccc(OC)c(OC)c3)C2=O)cc1OC | 5.91 kMESF (inactive)
31 | COc1ccc(C=C2C(=O)c3ccccc3C2=O)cc1O | 3.24 kMESF (inactive)
32 | CC1=C(C)/C(=N\OS(=O)(=O)c2ccccc2)C=CC1=O | 9.73 kMESF (inactive)
33 | COc1cccc(N=Cc2nc(-c3ccccc3)oc2OC(C)=O)c1 | 12.8 kMESF (inactive)
34 | O=c1c2cnn(-c3ccccc3)c2ncn1Cc1ccco1 | 2.63 kMESF (inactive)
35 | C#CCOc1c(Br)cc(/C=C2/C(=O)ON=C2C)cc1OC | 12.2 kMESF (inactive)

From PubChem BioAssay AID2745 (NMMLSC, 2010)
